Results reported in PubChem BioAssay (NCI).
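Here, GI50 denotes the concentration required for 50% inhibition of growth. TGI is the concentration that stops growth completely.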

How the values were obtained:
Experiment in all cases: NCI-60 cell line screen, 384-well format
SK-MEL-2 melanoma = system: SK-MEL-2 melanoma
RXF 393 renal = system: RXF 393 renal
SF-539 CNS = system: SF-539 CNS
PC-3 prostate = system: PC-3 prostate
CCRF-CEM leukemia = system: CCRF-CEM leukemia
HOP-92 NSCLC = system: HOP-92 NSCLC
HCT-15 colon = system: HCT-15 colon
HCC-2998 colon = system: HCC-2998 colon
HCT-116 colon = system: HCT-116 colon
UACC-62 melanoma = system: UACC-62 melanoma
MDA-MB-435 melanoma = system: MDA-MB-435 melanoma
DU-145 prostate = system: DU-145 prostate
SN12C renal = system: SN12C renal
M14 melanoma = system: M14 melanoma
U251 glioblastoma = system: U251 glioblastoma
HOP-62 NSCLC = system: HOP-62 NSCLC
SF-295 CNS = system: SF-295 CNS
CAKI-1 renal = system: CAKI-1 renal
UACC-257 melanoma = system: UACC-257 melanoma
A549 NSCLC = system: A549 NSCLC
OVCAR-5 ovarian = system: OVCAR-5 ovarian
MCF7 breast = system: MCF7 breast
MDA-MB-468 breast = system: MDA-MB-468 breast
HT29 colon = system: HT29 colon
OVCAR-3 ovarian = system: OVCAR-3 ovarian
BT-549 breast = system: BT-549 breast
SF-268 CNS = system: SF-268 CNS
MALME-3M melanoma = system: MALME-3M melanoma
LOX IMVI melanoma = system: LOX IMVI melanoma
786-0 renal = system: 786-0 renal
K-562 leukemia = system: K-562 leukemia
A498 renal = system: A498 renal
COLO 205 colon = system: COLO 205 colon
NCI-H23 lung = system: NCI-H23 lung
TK-10 renal = system: TK-10 renal
T-47D breast = system: T-47D breast
SR leukemia = system: SR leukemia
SW-620 colon = system: SW-620 colon
SK-OV-3 ovarian = system: SK-OV-3 ovarian
ACHN renal = system: ACHN renal
NCI-H522 lung = system: NCI-H522 lung
NCI-H226 lung = system: NCI-H226 lung
NCI/ADR-RES ovarian = system: NCI/ADR-RES ovarian
UO-31 renal = system: UO-31 renal
SNB-19 CNS = system: SNB-19 CNS
KM12 colon = system: KM12 colon
OVCAR-8 ovarian = system: OVCAR-8 ovarian
MOLT-4 leukemia = system: MOLT-4 leukemia
OVCAR-4 ovarian = system: OVCAR-4 ovarian
MDA-MB-231 breast = system: MDA-MB-231 breast
SK-MEL-28 melanoma = system: SK-MEL-28 melanoma
NCI-H322M lung = system: NCI-H322M lung
NCI-H460 NSCLC = system: NCI-H460 NSCLC
IGROV1 ovarian = system: IGROV1 ovarian
RPMI-8226 leukemia = system: RPMI-8226 leukemia
SK-MEL-5 melanoma = system: SK-MEL-5 melanoma
HL-60(TB) leukemia = system: HL-60(TB) leukemia

For `COc1ccc(CC(NC(=O)[C@H](C)NC(=O)CN2CCOCC2)C(=O)N[C@@H](Cc2ccccc2)C(=O)[C@@]2(C)CO2)cc1` (some centres undefined), the GI50 (SK-MEL-2 melanoma) was 22.6 nM, the TGI (SK-MEL-2 melanoma) was 93.8 nM and the GI50 (RXF 393 renal) was 135 nM. The TGI (RXF 393 renal) was 268 nM, the GI50 (SF-539 CNS) was 175 nM and the TGI (SF-539 CNS) was 315 nM. It also gave a GI50 (PC-3 prostate) of 188 nM, a TGI (PC-3 prostate) of 333 nM and a GI50 (CCRF-CEM leukemia) of 37.4 nM. The TGI (CCRF-CEM leukemia) was 137 nM, the GI50 (HOP-92 NSCLC) was 149 nM and the TGI (HOP-92 NSCLC) was 294 nM. It also gave a GI50 (HCT-15 colon) of 1810 nM, a TGI (HCT-15 colon) of 3390 nM and a GI50 (HCC-2998 colon) of 173 nM. It also gave a TGI (HCC-2998 colon) of 312 nM, a GI50 (HCT-116 colon) of 167 nM and a TGI (HCT-116 colon) of 309 nM. The GI50 (UACC-62 melanoma) was 126 nM, the TGI (UACC-62 melanoma) was 254 nM and the GI50 (MDA-MB-435 melanoma) was 141 nM. For the same compound, the TGI (MDA-MB-435 melanoma) was 281 nM, the GI50 (DU-145 prostate) was 302 nM and the TGI (DU-145 prostate) was 861 nM. For the same compound, the GI50 (SN12C renal) was 179 nM, the TGI (SN12C renal) was 320 nM and the GI50 (M14 melanoma) was 142 nM. For the same compound, the TGI (M14 melanoma) was 278 nM, the GI50 (U251 glioblastoma) was 173 nM and the TGI (U251 glioblastoma) was 316 nM. It also gave a GI50 (HOP-62 NSCLC) of 184 nM, a TGI (HOP-62 NSCLC) of 331 nM and a GI50 (SF-295 CNS) of 157 nM. For the same compound, the TGI (SF-295 CNS) was 294 nM, the GI50 (CAKI-1 renal) was 271 nM and the TGI (CAKI-1 renal) was 765 nM. For the same compound, the GI50 (UACC-257 melanoma) was 123 nM, the TGI (UACC-257 melanoma) was 253 nM and the GI50 (A549 NSCLC) was 319 nM. It also gave a TGI (A549 NSCLC) of 1080 nM, a GI50 (OVCAR-5 ovarian) of 192 nM and a TGI (OVCAR-5 ovarian) of 360 nM. For the same compound, the GI50 (MCF7 breast) was 138 nM, the TGI (MCF7 breast) was 382 nM and the GI50 (MDA-MB-468 breast) was 180 nM. It also gave a TGI (MDA-MB-468 breast) of 324 nM, a GI50 (HT29 colon) of 181 nM and a TGI (HT29 colon) of 330 nM. For the same compound, the GI50 (OVCAR-3 ovarian) was 131 nM, the TGI (OVCAR-3 ovarian) was 262 nM and the GI50 (BT-549 breast) was 175 nM. The TGI (BT-549 breast) was 316 nM, the GI50 (SF-268 CNS) was 136 nM and the TGI (SF-268 CNS) was 269 nM. The GI50 (MALME-3M melanoma) was 136 nM, the TGI (MALME-3M melanoma) was 281 nM and the GI50 (LOX IMVI melanoma) was 209 nM. It also gave a TGI (LOX IMVI melanoma) of 355 nM, a GI50 ([…]-0 renal) of 297 nM and a TGI (786-0 renal) of 1030 nM. For the same compound, the GI50 (K-562 leukemia) was 224 nM, the TGI (K-562 leukemia) was 468 nM and the GI50 (A498 renal) was 226 nM. It also gave a TGI (A498 renal) of 545 nM, a GI50 (COLO 205 colon) of 304 nM and a TGI (COLO 205 colon) of 1010 nM. The GI50 (NCI-H23 lung) was 210 nM, the TGI (NCI-H23 lung) was 362 nM and the GI50 (TK-10 renal) was 298 nM. For the same compound, the TGI (TK-10 renal) was 802 nM, the GI50 (T-47D breast) was 159 nM and the TGI (T-47D breast) was 302 nM. The GI50 (SR leukemia) was 30.4 nM, the TGI (SR leukemia) was 106 nM and the GI50 (SW-620 colon) was 167 nM. It also gave a TGI (SW-620 colon) of 312 nM, a GI50 (SK-OV-3 ovarian) of 171 nM and a TGI (SK-OV-3 ovarian) of 312 nM. For the same compound, the GI50 (ACHN renal) was 509 nM, the TGI (ACHN renal) was 1690 nM and the GI50 (NCI-H522 lung) was 167 nM. It also gave a TGI (NCI-H522 lung) of 304 nM, a GI50 (NCI-H226 lung) of 60.5 nM and a TGI (NCI-H226 lung) of 186 nM. For the same compound, the GI50 (NCI/ADR-RES ovarian) was 20400 nM, the TGI (NCI/ADR-RES ovarian) was 59400 nM and the GI50 (UO-31 renal) was 1750 nM. It also gave a TGI (UO-31 renal) of 3170 nM, a GI50 (SNB-19 CNS) of 188 nM and a TGI (SNB-19 CNS) of 347 nM. It also gave a GI50 (KM12 colon) of 165 nM, a TGI (KM12 colon) of 308 nM and a GI50 (OVCAR-8 ovarian) of 184 nM. The TGI (OVCAR-8 ovarian) was 340 nM, the GI50 (MOLT-4 leukemia) was 15.5 nM and the TGI (MOLT-4 leukemia) was 28.9 nM. It also gave a GI50 (OVCAR-4 ovarian) of 147 nM, a TGI (OVCAR-4 ovarian) of 284 nM and a GI50 (MDA-MB-231 breast) of 166 nM. For the same compound, the TGI (MDA-MB-231 breast) was 309 nM, the GI50 (SK-MEL-28 melanoma) was 132 nM and the TGI (SK-MEL-28 melanoma) was 262 nM. It also gave a GI50 (NCI-H322M lung) of 284 nM, a TGI (NCI-H322M lung) of 860 nM and a GI50 (NCI-H460 NSCLC) of 181 nM. It also gave a TGI (NCI-H460 NSCLC) of 355 nM, a GI50 (IGROV1 ovarian) of 255 nM and a TGI (IGROV1 ovarian) of 647 nM. It also gave a GI50 (RPMI-8226 leukemia) of 23.8 nM, a TGI (RPMI-8226 leukemia) of 55.4 nM and a GI50 (SK-MEL-5 melanoma) of 192 nM. It also gave a TGI (SK-MEL-5 melanoma) of 345 nM, a GI50 (HL-60(TB) leukemia) of 147 nM and a TGI (HL-60(TB) leukemia) of 280 nM.
